The values that follow come from article PMC6627067, “Probing Multi-Target Action of Phlorotannins as New Monoamine Oxidase Inhibitors and Dopaminergic Receptor Modulators with the Potential for Treatment of Neuronal Disorders” (Marine Drugs, 2019).

Each structure is given as a SMILES string. Where “and” joins values, the source holds several entries; their conditions need not be identical. Identical values can stand only once. Like-named read-outs stand apart in the source and are kept apart here.

In data set [1] the target is T1, hM5 (CHRM5) (Homo sapiens, UniProt P08912).
T1 sequence (P08912 1-532): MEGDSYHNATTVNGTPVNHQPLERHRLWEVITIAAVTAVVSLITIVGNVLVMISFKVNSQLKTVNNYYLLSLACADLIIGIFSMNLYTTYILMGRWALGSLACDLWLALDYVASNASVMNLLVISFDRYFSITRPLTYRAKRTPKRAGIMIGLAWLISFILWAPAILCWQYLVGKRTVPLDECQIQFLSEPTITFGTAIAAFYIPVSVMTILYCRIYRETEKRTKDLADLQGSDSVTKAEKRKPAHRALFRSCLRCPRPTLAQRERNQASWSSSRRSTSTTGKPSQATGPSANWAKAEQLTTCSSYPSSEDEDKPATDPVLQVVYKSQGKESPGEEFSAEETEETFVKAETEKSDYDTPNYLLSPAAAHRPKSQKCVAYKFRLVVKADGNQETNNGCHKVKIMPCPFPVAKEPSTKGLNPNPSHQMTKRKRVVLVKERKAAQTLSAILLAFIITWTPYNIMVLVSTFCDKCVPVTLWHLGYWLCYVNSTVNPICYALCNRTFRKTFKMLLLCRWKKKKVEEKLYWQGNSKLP
The experiment in a line: GPCR cell-based functional assay, intracellular Ca2+ level, M5.

For data set [2], the target named is T2, hNK1 (TACR1) (Homo sapiens, UniProt P25103). Description: GPCR cell-based functional assay, intracellular Ca2+ level, NK1. The conditions noted are these: for % Stimulation of control agonist response, hNK1: agonist effect at 100 µM.
Data set [3] deals with T3, h5-HT1A (HTR1A) (Homo sapiens, UniProt P08908).
T3 sequence (P08908 1-422): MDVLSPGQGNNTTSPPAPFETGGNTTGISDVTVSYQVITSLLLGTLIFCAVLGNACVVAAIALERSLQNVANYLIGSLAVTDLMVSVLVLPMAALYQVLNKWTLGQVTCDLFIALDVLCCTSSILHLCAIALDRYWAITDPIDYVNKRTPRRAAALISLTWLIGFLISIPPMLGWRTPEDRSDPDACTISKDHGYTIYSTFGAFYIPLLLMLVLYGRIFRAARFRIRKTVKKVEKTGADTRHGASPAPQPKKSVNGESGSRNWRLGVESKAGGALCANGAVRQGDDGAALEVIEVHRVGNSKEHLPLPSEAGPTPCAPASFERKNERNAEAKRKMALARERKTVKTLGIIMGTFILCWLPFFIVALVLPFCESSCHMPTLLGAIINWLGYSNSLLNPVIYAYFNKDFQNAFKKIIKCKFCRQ
Description: GPCR cell-based functional assay, intracellular Ca2+ level, 5-HT1A.

Data set [4] addresses T4, hV1A (AVPR1A) (Homo sapiens, UniProt P37288). The experiment in a line: GPCR cell-based functional assay, intracellular Ca2+ level, V1A. Conditions: for % Stimulation of control agonist response, hV1A: agonist effect at 100 µM.
Data set [5] concerns the target T5, hD1 (DRD1) (Homo sapiens, UniProt P21728). The conditions noted are these: agonist effect at 100 µM.
Data set [6] deals with T6, hD3 (DRD3) (Homo sapiens, UniProt P35462). Conditions: agonist effect at 100 µM.
In the next data set the target is T7, hMAO-A (Homo sapiens, UniProt P21397).
T7 sequence (P21397 1-527): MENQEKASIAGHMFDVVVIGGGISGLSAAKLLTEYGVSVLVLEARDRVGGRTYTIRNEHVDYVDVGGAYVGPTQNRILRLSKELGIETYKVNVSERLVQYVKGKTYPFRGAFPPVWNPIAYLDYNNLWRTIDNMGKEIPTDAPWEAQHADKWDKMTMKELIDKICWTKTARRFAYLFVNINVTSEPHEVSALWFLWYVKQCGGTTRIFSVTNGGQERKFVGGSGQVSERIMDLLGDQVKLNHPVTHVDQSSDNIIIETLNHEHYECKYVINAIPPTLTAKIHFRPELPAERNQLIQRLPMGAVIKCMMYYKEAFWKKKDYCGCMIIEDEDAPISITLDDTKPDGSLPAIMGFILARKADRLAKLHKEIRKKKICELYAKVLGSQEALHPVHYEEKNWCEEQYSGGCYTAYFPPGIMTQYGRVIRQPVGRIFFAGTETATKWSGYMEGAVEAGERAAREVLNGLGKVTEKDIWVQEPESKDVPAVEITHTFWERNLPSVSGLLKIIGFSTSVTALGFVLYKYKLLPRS
Also on record: method as in PMID 28251489. The conditions noted are these: cited from earlier work; for SI (selective index): ratio of hMAO-A IC50/hMAO-B IC50; for IC50: recombinant hMAO-A, obtained from the literature.

The next data set deals with T8, hMAO-B (Homo sapiens, UniProt P27338).
T8 sequence (P27338 1-520): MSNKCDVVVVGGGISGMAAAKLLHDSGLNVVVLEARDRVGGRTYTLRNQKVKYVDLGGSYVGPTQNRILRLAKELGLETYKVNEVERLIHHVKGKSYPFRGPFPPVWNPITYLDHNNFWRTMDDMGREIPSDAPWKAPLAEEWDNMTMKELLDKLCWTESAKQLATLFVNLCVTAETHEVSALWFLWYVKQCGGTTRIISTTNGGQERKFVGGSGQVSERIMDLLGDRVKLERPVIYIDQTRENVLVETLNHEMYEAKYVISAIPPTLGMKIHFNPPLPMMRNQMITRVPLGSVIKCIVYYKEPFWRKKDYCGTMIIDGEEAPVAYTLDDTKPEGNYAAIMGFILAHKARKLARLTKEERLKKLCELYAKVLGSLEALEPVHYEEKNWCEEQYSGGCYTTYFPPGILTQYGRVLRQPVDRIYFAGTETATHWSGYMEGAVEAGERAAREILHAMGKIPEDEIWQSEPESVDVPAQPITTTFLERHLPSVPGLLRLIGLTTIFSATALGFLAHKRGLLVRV
Also on record: method as in PMID 28251489. The conditions noted are these: cited from earlier work; for IC50: recombinant hMAO-B, obtained from the literature.

On the set-up of data set [7]: method as in PMID 25996411. The conditions noted are these: cited from earlier work.
Data set [8] addresses T5, hD1 (DRD1). The experiment in a line: cell-based. Conditions: read-out: % Inhibition of control agonist response, hD1.
The target of data set [9] is T6, hD3 (DRD3). The experiment in a line: cell-based.
Data set [10] concerns the target T9, hD4 (DRD4) (Homo sapiens, UniProt P21917).
T9 sequence (P21917 1-419): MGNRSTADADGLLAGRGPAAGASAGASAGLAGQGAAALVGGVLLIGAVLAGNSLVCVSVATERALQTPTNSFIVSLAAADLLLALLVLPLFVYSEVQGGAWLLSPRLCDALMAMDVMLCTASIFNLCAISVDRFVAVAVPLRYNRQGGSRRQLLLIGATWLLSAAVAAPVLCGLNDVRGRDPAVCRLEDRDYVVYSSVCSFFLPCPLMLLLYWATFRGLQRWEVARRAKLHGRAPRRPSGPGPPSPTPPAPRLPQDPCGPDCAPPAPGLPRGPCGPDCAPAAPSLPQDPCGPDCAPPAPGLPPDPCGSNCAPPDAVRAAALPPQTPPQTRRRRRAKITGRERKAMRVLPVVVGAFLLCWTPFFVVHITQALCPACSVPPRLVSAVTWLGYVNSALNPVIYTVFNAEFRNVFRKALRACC
The conditions noted are these: for % Stimulation of control agonist response, hD4: agonist effect at 100 µM.

In data set [11] the target is T1, hM5 (CHRM5). Conditions: previous GPCR cell-based study; cited from earlier work.
Data set [12] addresses T2, hNK1 (TACR1). The conditions noted are these: previous GPCR cell-based study; cited from earlier work.
Data set [13] deals with T3, h5-HT1A (HTR1A). The conditions noted are these: previous GPCR cell-based study; cited from earlier work.
Data set [14] concerns the target T4, hV1A (AVPR1A). The conditions noted are these: previous GPCR cell-based study; cited from earlier work.
Data set [15] concerns the target T5, hD1 (DRD1). Also on record: host or cells: CHO cells. Conditions: previous GPCR cell-based study; cited from earlier work.
In data set [16] the target is T6, hD3 (DRD3). Also on record: host or cells: CHO cells. Conditions: previous GPCR cell-based study; cited from earlier work.
For data set [17], the target named is T9, hD4 (DRD4). The arrangement: host or cells: CHO cells. The conditions noted are these: previous GPCR cell-based study; cited from earlier work.

T2 sequence (P25103 whole entry): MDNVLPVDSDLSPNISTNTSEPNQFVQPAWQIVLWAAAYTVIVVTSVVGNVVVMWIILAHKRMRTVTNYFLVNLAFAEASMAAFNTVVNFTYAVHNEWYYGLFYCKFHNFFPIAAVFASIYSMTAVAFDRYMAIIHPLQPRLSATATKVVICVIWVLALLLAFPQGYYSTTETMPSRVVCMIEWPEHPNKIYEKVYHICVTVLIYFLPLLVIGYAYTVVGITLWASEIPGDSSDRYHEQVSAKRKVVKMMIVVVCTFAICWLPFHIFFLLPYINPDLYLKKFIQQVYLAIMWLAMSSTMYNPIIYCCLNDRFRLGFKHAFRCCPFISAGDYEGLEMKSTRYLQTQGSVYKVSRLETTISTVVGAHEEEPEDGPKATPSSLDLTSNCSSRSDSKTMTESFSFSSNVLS
T5 sequence (P21728 whole entry): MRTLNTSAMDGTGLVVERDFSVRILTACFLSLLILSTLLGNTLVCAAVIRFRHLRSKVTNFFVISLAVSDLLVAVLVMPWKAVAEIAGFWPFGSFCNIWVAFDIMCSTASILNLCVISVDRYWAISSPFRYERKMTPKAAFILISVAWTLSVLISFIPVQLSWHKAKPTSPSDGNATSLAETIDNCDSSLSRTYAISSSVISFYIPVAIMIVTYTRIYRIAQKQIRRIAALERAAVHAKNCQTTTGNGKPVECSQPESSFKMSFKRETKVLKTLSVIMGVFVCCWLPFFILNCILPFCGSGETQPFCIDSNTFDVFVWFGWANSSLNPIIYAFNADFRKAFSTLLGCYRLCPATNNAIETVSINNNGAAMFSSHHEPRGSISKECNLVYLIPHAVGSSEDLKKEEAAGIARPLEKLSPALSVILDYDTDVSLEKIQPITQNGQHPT
T4 sequence (P37288 whole entry): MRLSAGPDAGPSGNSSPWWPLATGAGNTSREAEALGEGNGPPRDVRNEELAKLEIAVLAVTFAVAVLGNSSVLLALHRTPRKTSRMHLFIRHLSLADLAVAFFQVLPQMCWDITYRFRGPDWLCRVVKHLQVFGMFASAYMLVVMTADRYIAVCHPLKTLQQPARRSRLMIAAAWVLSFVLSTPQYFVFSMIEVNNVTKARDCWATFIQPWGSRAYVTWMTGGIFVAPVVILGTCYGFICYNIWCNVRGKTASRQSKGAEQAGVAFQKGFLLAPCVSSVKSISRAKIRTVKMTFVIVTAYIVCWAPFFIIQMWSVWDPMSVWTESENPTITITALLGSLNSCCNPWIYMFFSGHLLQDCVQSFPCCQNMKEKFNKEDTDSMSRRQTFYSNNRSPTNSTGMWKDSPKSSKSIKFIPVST
T6 sequence (P35462 whole entry): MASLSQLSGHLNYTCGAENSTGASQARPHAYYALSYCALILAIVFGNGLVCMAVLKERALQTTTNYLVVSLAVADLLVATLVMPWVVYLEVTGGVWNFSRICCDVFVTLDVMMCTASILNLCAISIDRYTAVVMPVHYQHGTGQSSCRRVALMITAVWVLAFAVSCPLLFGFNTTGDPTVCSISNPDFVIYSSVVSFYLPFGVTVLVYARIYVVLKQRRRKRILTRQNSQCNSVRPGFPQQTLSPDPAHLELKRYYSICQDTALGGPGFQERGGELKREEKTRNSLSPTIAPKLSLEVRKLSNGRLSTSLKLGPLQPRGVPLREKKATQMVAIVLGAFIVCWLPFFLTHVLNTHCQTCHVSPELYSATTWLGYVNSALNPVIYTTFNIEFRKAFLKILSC

Turning to `Oc1cc(O)cc(Oc2c(O)cc(O)c3c2Oc2c(O)cc(Oc4c(O)cc(Oc5c(O)cc(O)c6c5Oc5c(O)cc(O)cc5O6)cc4O)cc2O3)c1` [Dieckol, dieckol], at hM5 (CHRM5) [1] (agonist effect at 100 µM), the “% Stimulation of control agonist response, hM5” value is 7.60 ± 17.11 ^AB %. Besides, the inhibition at 100 µM on hM5 (CHRM5) [1] (antagonist effect at 100 µM, read-out: % Inhibition of control agonist response, hM5) was 19.6%; at hNK1 (TACR1) [2] (antagonist effect at 100 µM, read-out: % Inhibition of control agonist response, hNK1), 77.7%; on h5-HT1A (HTR1A) [3] (antagonist effect at 100 µM, read-out: % Inhibition of control agonist response, h5-HT1A) it was 76.8%; at hV1A (AVPR1A) [4] (antagonist effect at 100 µM, read-out: % Inhibition of control agonist response, hV1A), 46.2%; at hD1 (DRD1) [8], 60.6%; at hD3 (DRD3) [9] (read-out: % Inhibition of control agonist response, hD3), -2.5%. At hD4 (DRD4) [10] (read-out: % Inhibition of control agonist response, hD4), the inhibition at 100 µM is -5.35%. Besides, the “% Stimulation of control agonist response, hNK1” value was 54.70 ± 1.41 ^B % at hNK1 (TACR1) [2] and 54.70% at hNK1 (TACR1) [2] (listed as dieckol). Moreover, the “% Stimulation of control agonist response, h5-HT1A” value at h5-HT1A (HTR1A) [3] (agonist effect at 100 µM) is recorded as 1.75 ± 0.64 ^A %. In addition, the “% Stimulation of control agonist response, hV1A” value at hV1A (AVPR1A) [4] is 64.20 ± 0.14 ^A %; at hV1A (AVPR1A) [4] (listed as dieckol) it was 64.20 ± 0.14% and 64.2%. Also, on hD1 (DRD1) [5], the “% Stimulation of control agonist response, hD1” value is reported as 1.05 ± 0.21 ^A %. For the same compound, the entries for the “% Stimulation of control agonist response, hD3” value on hD3 (DRD3) [6] and on hD3 (DRD3) [6] (listed as dieckol) were 81.10 ± 0.66 ^B % and 81.10 ± 0.66%, respectively. For the same compound, the Ki was 20.3 µM on hMAO-A and 18.5 µM at hMAO-B. Also, at hMAO-A, the “SI (selective index)” value is 0.26. The IC50 is 11.4 ± 1.06 µM at hMAO-A and 43.4 ± 0.73 µM at hMAO-B. For the same compound, the BBB penetration result in [7] is on record as “effectively penetrate the BBB”. Further, the EC50 at hD3 (DRD3) [9] is 44.2 ± 3.25 µM; at hD4 (DRD4) [10], 34 ± 8.62 µM. In addition, the “% Stimulation of control agonist response, hD4” value on hD4 (DRD4) [10] is reported as 74.43 ± 6.37 ^B %; at hD4 (DRD4) [10] (listed as dieckol) it was 74.43 ± 6.37%.
As for `Oc1cc(O)cc(Oc2c(O)cc(O)c3c2Oc2c(O)cc(O)cc2O3)c1` [Eckol, eckol], the “Inhibition type hMAO-A” value on hMAO-A (NC = noncompetitive, Mixed = mixed type) is “Mixed”. On hMAO-A, the Ki is 20.3 µM, the “SI (selective index)” value was 0.09 and the IC50 is 7.2 ± 0.71 µM. Also, on hMAO-B, the Ki was 163 µM and the IC50 is 83.4 ± 1.48 µM. The “Effect on M5 receptor” value at hM5 (CHRM5) [11] is recorded as “null effects”. At hNK1 (TACR1) [12], the “Effect on NK1 receptor” value is “null effects”. In addition, on h5-HT1A (HTR1A) [13], the “Effect on 5HT1A receptor” value is recorded as “null effects”. The “Effect on V1A receptor” value on hV1A (AVPR1A) [14] is listed as “null effects”. For the same compound, the “Effect on D1R” value on hD1 (DRD1) [15] is on record as “null effects”. Also, on hD3 (DRD3) [16], the “Effect on hD3R” value is given as “agonist”. Further, the “Effect on hD4R” value on hD4 (DRD4) [17] is “agonist”.
